Consider 18 molecules from patent US8901116B2, “Method for treating pain, anxiety or depression using carbamoyloxy alkanoyl piperazine compound” (SK Biopharmaceuticals Co., Ltd., priority 2007, dated 2014).

Holding throughout (format): in vivo
The subject of experiment [1] is male ICR mouse. In words: Head twitch potentiation induced by 5-HTP (5-HTP potentiation test) in mouse. As to conditions: po, 0.5 h, p.o, 5-HTP 80 mg/kg + Carbidopa 25 mg/kg i.p. 30 minutes after dosing, head twitches counted for 2 minutes, negative = 5-HT2A antagonist, read-out: 5-HTP Potentiation Increase rate in Head Twitch No. The method, then:
When 5-hydroxy-L-tryptophan (5-HTP) is administered into a mouse, a head twitch phenomenon is observed since serotonin is increasingly secreted in the mouse. […] By using this principle, it is possible to search an effect of the representative antidepressant agent. A test material dissolved in a suitable vehicle was orally administered to a male ICR mouse weighing 20 to 25 g at an amount of 30 mg/kg. After 30 minutes of the oral administration, 5-HTP (80 mg/kg) and 5-HTP peripheral decarbozylase inhibitor ‘Carbidopa’ (25 mg/kg) were intraperitoneally administered to the mouse. After 30 minutes of the intraperitoneal administration, the mouse was put into an observation cage, and head twitches of the mouse were counted for 2 minutes. The anti-depression effect of the test material is represented by the ‘Increase rate in Head Twitch No.’ {[(Head Twitch No. of Test material-administered group−Head Twitch No. of vehicle-administered group)/(Head Twitch No. of vehicle-administered group)]×100%}. […] In addition to the selective serotonin reuptake inhibitor (SSRI) that has been widely used as an antidepressant agent in the clinical fields, it was tested that 5-HT2A antagonists such as nefazodone and trazodone also have an antidepressant effect.

Experiment [2] concerns male ICR mouse. In words: Elevated plus maze (EPM) test in mouse. As to conditions: po, p.o, 1 hour after dosing, 5 minutes observation, read-out: Elevated Plus Maze Change index in Open-Arm Time. The text has this: Elevated plus maze (EPM) is one of representative models that examine an anti-anxiety activity of a test material. Equipment used for an EPM test has a crossroad shape raised in a high position off the ground, and is configured in such a cliff shape that both sides of one road are protected with high walls and the other road is free from the wall. Among them, the road in the cliff shape is referred to as an ‘open arm,’ and the road protected by the walls is referred to as a ‘close arm.’ In this case, a level of the anxiety of a mouse may be measured by determining in which arm the mouse stays longer. In general, the mouse stays longer in the close arm than the open arm, but a mouse treated with a medicine showing an anti-anxiety effect stays relatively longer in the open arm. A test material dissolved in a suitable vehicle was orally administered to a male ICR mouse weighing 20 to 25 g at an amount of 10 mg/kg. After 1 hour of the oral administration, the mouse was put on the center of an EPM equipment to measure how long the mouse stays in the open arm within a time range of 5 minutes. The anti-anxiety effect of the test material is represented by the ‘Change index in Open-Arm Time’ {[(open arm duration in test material-administered group−open arm duration in vehicle-administered group)/(open arm duration in vehicle administered group)]×100%}.

For experiment [3], the system named is male ICR mouse. In words: Acetic acid-induced writhing test in mouse. As to conditions: po, p.o, acetic acid i.p. 1 hour after dosing, writhing counted for 10 minutes, read-out: Writhing Test Suppression of pain response. An outline of the steps: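 Test material given orally at 10 mg/kg to male mice (30–35 g); 1 h later 0.8% acetic acid injected i.p. Writhes counted over 10 min immediately afterwards; analgesia expressed as percent suppression of writhing versus vehicle group.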

Experiment [4] relates to male ICR mouse. Briefly: Hot plate test in mouse. The settings on record: po, p.o, 1 hour after dosing, hot plate 55° C., read-out: Hot Plate Test Increase in latency of avoidance response. An outline of the steps: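 Male ICR mice (25–30 g) dosed orally at 30 mg/kg and placed on a 55° C. hot plate 1 h later. Latency to forefoot or hind-leg avoidance (flinching, licking, jumping) recorded; effect expressed as % increase in latency over vehicle group.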
(Thermal pain tests record how soon the animal reacts.)

Turning to `NC(=O)OC(CC(=O)N1CCN(c2ccccc2)CC1)c1cccc(Br)c1` (stereo not drawn) [Example 46, carbamic acid 1-(3-bromo-phenyl)-3-oxo-3-(4-phenyl-piperazin-1-yl)-propyl ester], the change in vivo at 30 mg/kg came out at 40.3% in experiment [1] and 33.1% in experiment [4]. Also, the change in vivo at 10 mg/kg in experiment [2] came to 5.7%. In addition, the inhibition in vivo at 10 mg/kg in experiment [3] stood at 71.3%.
For `NC(=O)OC(c1ccccc1)C(F)(F)C(=O)N1CCN(c2ccccc2)CC1` (stereo not drawn) [Example 47, carbamic acid 2,2-difluoro-3-oxo-1-phenyl-3-(4-phenyl-piperazin-1-yl)-propyl ester] the same measures were 22.5%, 27.2%, 21.4% and 28.8%.
For `NC(=O)OC(CC(=O)N1CCN(c2ccccc2)CC1)c1ccoc1` (stereo not drawn) [Example 49, carbamic acid-1-furan-3-yl-3-oxo-3-(4-phenyl-piperazin-1-yl)-propyl ester] the same measures were -20%, 20.6%, 48.9% and 34.4%.
The like results for `Cc1cccc(C(CC(=O)N2CCN(c3ccccc3)CC2)OC(N)=O)c1` (stereo not drawn) [Example 50, carbamic acid 1-(3-methyl-phenyl)-3-oxo-3-(4-phenyl-piperazin-1-yl)-propyl ester] were, in that order, -21.3%, 31.3%, 65.4% and 15%.
As to `NC(=O)OC(CC(=O)N1CCN(c2ccccc2)CC1)c1cccc(Cl)c1` (stereo not drawn) [Example 51, carbamic acid 1-(3-chloro-phenyl)-3-oxo-3-(4-phenyl-piperazin-1-yl)-propyl ester], the change in vivo at 30 mg/kg in experiment [1] amounted to 40.3%; in experiment [4] it was 29.2%. Besides, the change in vivo at 10 mg/kg in experiment [2] is -0.7%. In addition, the inhibition in vivo at 10 mg/kg in experiment [3] is 50.8%.
As for `NC(=O)OC1c2ccccc2CCC1C(=O)N1CCN(c2ccccc2)CC1` (stereo not drawn) [Example 52, carbamic acid-2-(4-phenyl-piperazine-1-carbonyl)-1,2,3,4-tetrahydro-naphthalene-1-yl ester], the change in vivo at 30 mg/kg in experiment [1] is 40%; in experiment [4], 20.5%. Besides, the change in vivo at 10 mg/kg in experiment [2] is 14.6%. In addition, the inhibition in vivo at 10 mg/kg in experiment [3] amounted to 26.8%.
Regarding `NC(=O)OC(CC(=O)N1CCN(c2ccccc2)CC1)c1ccc(Cl)c(Cl)c1` (stereo not drawn) [Example 53, carbamic acid 1-(3,4-dichloro-phenyl)-3-oxo-3-(4-phenyl-piperazin-1-yl)-propyl ester], the change in vivo at 30 mg/kg was found to be 50% in experiment [1] and 10.6% in experiment [4]. Moreover, the change in vivo at 10 mg/kg in experiment [2] was -17.7%. The inhibition in vivo at 10 mg/kg in experiment [3] amounted to 28.5%.
For `NC(=O)OC(CC(=O)N1CCN(c2ccccc2)CC1)c1cc(C(F)(F)F)cc(C(F)(F)F)c1` (stereo not drawn) [Example 55, carbamic acid 1-(3,5-trifluoromethyl-phenyl)-3-oxo-3-(4-phenyl-piperazin-1-yl)-propyl ester] the same measures were 22.5%, 13.9%, 13.8% and 32.8%.
For `NC(=O)OC(CC(=O)N1CCN(c2ccccc2)CC1)c1ccc(Cl)cc1Cl` (stereo not drawn) [Example 56, carbamic acid 1-(2,4-dichloro-phenyl)-3-oxo-3-(4-phenyl-piperazin-1-yl)-propyl ester], the change in vivo at 30 mg/kg in experiment [1] turned out to be 40%; in experiment [4], 11.8%. In experiment [2], the change in vivo at 10 mg/kg turned out to be 23.9%. Besides, the inhibition in vivo at 10 mg/kg in experiment [3] was determined as 23.3%.
With `NC(=O)OC(CC(=O)N1CCN(c2ccccc2)CC1)c1cc(F)ccc1F` (stereo not drawn) [Example 57, carbamic acid 1-(2,5-difluoro-phenyl)-3-oxo-3-(4-phenyl-piperazin-1-yl)-propyl ester], the change in vivo at 30 mg/kg in experiment [1] was 27.9%; in experiment [4], 11.2%. Further, the change in vivo at 10 mg/kg in experiment [2] is 88.8%. Further, the inhibition in vivo at 10 mg/kg in experiment [3] amounted to 34.5%.
For `NC(=O)OC(CC(=O)N1CCN(c2ccccc2)CC1)c1ccc(F)c(F)c1` (stereo not drawn) [Example 60, carbamic acid 1-(3,4-difluoro-phenyl)-3-oxo-3-(4-phenyl-piperazin-1-yl)-propyl ester] the same measures were -23.5%, 17.2%, 21.3% and 28%.
On to `NC(=O)O[C@H](CC(=O)N1CCN(c2ccc(Cl)cc2)CC1)c1ccccc1` [Example 61, (R)-carbamic acid 3-[4-(4-chloro-phenyl)-piperazin-1-yl]-3-oxo-1-phenyl-propyl ester], for which the change in vivo at 30 mg/kg was found to be 27.3% in experiment [1] and 38.8% in experiment [4]. For the same molecule, the change in vivo at 10 mg/kg in experiment [2] is -27.4%. Further, the inhibition in vivo at 10 mg/kg in experiment [3] was 24.1%.
With `NC(=O)O[C@H](CC(=O)N1CCN(c2ccc(F)cc2)CC1)c1ccccc1` [Example 62, (R)-carbamic acid 3-[4-(4-fluoro-phenyl)-piperazin-1-yl]-3-oxo-1-phenyl-propyl ester], the change in vivo at 30 mg/kg in experiment [1] came out at 0.8%; in experiment [4], 13.8%. Further, the change in vivo at 10 mg/kg in experiment [2] was 2.7%. The inhibition in vivo at 10 mg/kg in experiment [3] was found to be 66.7%.
Regarding `CCOc1ccc(N2CCN(C(=O)C[C@@H](OC(N)=O)c3ccccc3)CC2)cc1` [Example 63, (R)-carbamic acid 3-[4-(4-ethoxy-phenyl)-piperazin-1-yl]-3-oxo-1-phenyl-propyl ester], the figures for the change in vivo at 30 mg/kg in experiment [1] and in experiment [4] were 19.5% and 15.2%, respectively. The change in vivo at 10 mg/kg in experiment [2] stood at 25%. For the same molecule, in experiment [3], the inhibition in vivo at 10 mg/kg is 59.8%.
For the molecule `NC(=O)O[C@@H](CC(=O)N1CCN(c2ccc(F)c(F)c2)CC1)c1ccccc1` [Example 64, (S)-carbamic acid 3-[4-(3,4-difluoro-phenyl)-piperazin-1-yl]-3-oxo-1-phenyl-propyl ester], the figures for the change in vivo at 30 mg/kg in experiment [1] and in experiment [4] were 134% and 33%, respectively. In addition, the change in vivo at 10 mg/kg in experiment [2] was found to be 125%. The inhibition in vivo at 10 mg/kg in experiment [3] stood at 41.1%.
With `NC(=O)O[C@@H](CC(=O)N1CCN(c2ccc(Cl)c(Cl)c2)CC1)c1ccccc1` [Example 66, (S)-carbamic acid 3-[4-(3,4-dichloro-phenyl)-piperazin-1-yl]-3-oxo-1-phenyl-propyl ester], the change in vivo at 30 mg/kg in experiment [1] was -39.5%; in experiment [4] it was 27.8%. The change in vivo at 10 mg/kg in experiment [2] worked out at 50.6%. Besides, the inhibition in vivo at 10 mg/kg in experiment [3] was 62.5%.
With `NC(=O)O[C@H](CC(=O)N1CCN(c2ccc(F)c(F)c2)CC1)c1ccccc1` [Example 67, (R)-carbamic acid 3-[4-(3,4-difluoro-phenyl)-piperazin-1-yl]-3-oxo-1-phenyl-propyl ester], the change in vivo at 30 mg/kg in experiment [1] stood at 58.8%; in experiment [4], 34.3%. Further, the change in vivo at 10 mg/kg in experiment [2] turned out to be 34.3%. Further, the inhibition in vivo at 10 mg/kg in experiment [3] turned out to be 45.1%.
Regarding `NC(=O)O[C@H](CC(=O)N1CCN(c2ccc(Cl)c(Cl)c2)CC1)c1ccccc1` [Example 68, (R)-carbamic acid 3-[4-(3,4-dichloro-phenyl)-piperazin-1-yl]-3-oxo-1-phenyl-propyl ester], the change in vivo at 30 mg/kg was -28.6% in experiment [1] and 15.7% in experiment [4]. Also, the change in vivo at 10 mg/kg in experiment [2] came to 1.5%. Besides, the inhibition in vivo at 10 mg/kg in experiment [3] was determined as 51%.
